Reference: PubChem BioAssay (NCI)
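1) Cells in 96-well plates. 2) Compound, 48 h, 5 concentrations. 3) Linear interpolation between surrounding doses. 4) Unreached endpoint = highest concentration. TGI is the concentration that stops growth completely.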 Where a SMILES comes first, the peptide text is derived from it. Bridges are numbered along the chain shown (N, C = ends). [ ]: non-standard residue; d: D form. The star is where a group is joined. ξ: configuration not given here. X26 = O=C(/C=C/C=C/C=C/C=C/C=C/C(=O)*)NC1=C(O)CCC1=O; NMeA = CN[C@@H](C)C(=O)O; ξF = NC(Cc1ccccc1)C(=O)O; ξA = CC(N)C(=O)O

How the values were obtained:
Assay in all cases: growth of human tumour cells (NCI), 48 h
HCT-116 colon = test system: HCT-116 colon
M14 melanoma = test system: M14 melanoma
OVCAR-4 ovarian = test system: OVCAR-4 ovarian
SR leukemia = test system: SR leukemia
MDA-MB-435 = test system: MDA-MB-435
IGROV1 ovarian = test system: IGROV1 ovarian
SF-268 CNS = test system: SF-268 CNS
HCT-15 colon = test system: HCT-15 colon
NCI/ADR-RES ovarian = test system: NCI/ADR-RES ovarian
K-562 leukemia = test system: K-562 leukemia
NCI-H460 lung = test system: NCI-H460 lung
NCI-H226 lung = test system: NCI-H226 lung
CAKI-1 renal = test system: CAKI-1 renal
SF-295 CNS = test system: SF-295 CNS
MDA-MB-231 breast = test system: MDA-MB-231 breast
OVCAR-5 ovarian = test system: OVCAR-5 ovarian

SMILES | TGI (HCT-116 colon) | TGI (M14 melanoma) | TGI (OVCAR-4 ovarian) | TGI (SR leukemia) | TGI (MDA-MB-435) | TGI (IGROV1 ovarian) | TGI (SF-268 CNS) | TGI (HCT-15 colon) | TGI (NCI/ADR-RES ovarian) | TGI (K-562 leukemia) | TGI (NCI-H460 lung) | TGI (NCI-H226 lung) | TGI (CAKI-1 renal) | TGI (SF-295 CNS) | TGI (MDA-MB-231 breast) | TGI (OVCAR-5 ovarian)
Cc1ccc(CC[P+](=O)CCc2ccc(C)nc2)cn1 | > 100 µM | > 100 µM | > 100 µM | > 100 µM | > 100 µM | > 100 µM | > 100 µM | > 100 µM | > 100 µM | > 100 µM | > 100 µM | > 100 µM | > 100 µM | > 100 µM | > 100 µM | > 100 µM
CCc1c[n+]([O-])c(C)cc1[N+](=O)[O-] | > 100 µM | > 100 µM | – | > 100 µM | > 100 µM | > 100 µM | > 100 µM | 40.1 µM | > 100 µM | > 100 µM | 63.5 µM | – | > 100 µM | > 100 µM | 80.7 µM | > 100 µM
O=C(O)c1cc(-c2ccc3c(O)c(O)ccc3c2)ccc1O | 30.3 µM | 70.6 µM | 27 µM | 42 µM | > 75 µM | > 75 µM | > 75 µM | > 75 µM | > 75 µM | 32.2 µM | > 7.5 µM | > 75 µM | 25.6 µM | 29.1 µM | 54.1 µM | 26.2 µM
N#CC(N=Nc1ccc(Cl)cc1)c1nc2ccccc2o1 (stereo not drawn) | > 100 µM | > 100 µM | > 100 µM | > 100 µM | > 100 µM | – | > 100 µM | > 100 µM | > 100 µM | 50.2 µM | > 100 µM | > 100 µM | > 100 µM | 67.9 µM | > 100 µM | > 100 µM
CC1NC(=O)[C@H](C)N(C)C(=O)[C@@H]2CCCN2C(=O)[C@@H](NC(=O)C(Cc2ccccc2)NC(=O)/C=C/C=C/C=C/C=C/C=C/C(=O)NC2=C(O)CCC2=O)COC(=O)[C@@H]2CCCN2C1=O (stereo partly drawn) (X26-[ξF]SP[NMeA][ξA]P; ester 2-C) | > 100 µM | > 100 µM | > 100 µM | > 100 µM | > 100 µM | > 100 µM | > 100 µM | > 100 µM | > 100 µM | > 100 µM | > 100 µM | – | > 100 µM | > 100 µM | > 100 µM | > 100 µM
Oc1[nH]c2ccc(Br)cc2c1N=NC(=S)Nc1ccc(F)cc1 | 18 µM | – | 25.7 µM | 12.2 µM | 13.6 µM | 23.2 µM | 35.7 µM | 11.8 µM | 6.63 µM | 67.3 µM | 15.3 µM | 40.1 µM | 19.3 µM | 21.8 µM | 35.5 µM | > 100 µM
CCOC(=O)C1(C(=O)OCC)COS(=O)OC1 | 31.2 µM | > 100 µM | 42.6 µM | > 100 µM | > 100 µM | – | – | 54.6 µM | > 100 µM | > 100 µM | > 100 µM | 40.6 µM | – | > 100 µM | 35.3 µM | –
CCOC(=O)c1nc2ccc(C(F)(F)F)cc2nc1Oc1ccc(C#N)cc1 | > 100 µM | 42.9 µM | 83.8 µM | > 100 µM | > 100 µM | 28.5 µM | 33.6 µM | > 100 µM | 48.9 µM | > 100 µM | > 100 µM | 34.8 µM | 59.1 µM | 31.5 µM | 27.9 µM | –
O=c1[nH]cnc2c1ncn2[C@@H]1C[C@@H]1CO | > 100 µM | > 100 µM | > 100 µM | > 100 µM | > 100 µM | > 100 µM | > 100 µM | > 100 µM | > 100 µM | > 100 µM | > 100 µM | > 100 µM | > 100 µM | – | > 100 µM | > 100 µM
Cc1ccc([N+](=O)[O-])cc1N=NC(=O)NNc1cc([N+](=O)[O-])ccc1C | 36.8 µM | 53.5 µM | – | > 100 µM | 53 µM | – | – | 74.3 µM | > 100 µM | > 100 µM | – | – | 66.8 µM | 40.9 µM | 47.8 µM | > 100 µM
COC(=O)CCc1cc(OC)c2c(c1)[C@H](C(=O)OC)[C@@H](c1ccc(O)c(OC)c1)O2 | > 100 µM | > 100 µM | > 100 µM | 19.1 µM | 39.5 µM | > 100 µM | > 100 µM | > 100 µM | > 100 µM | 50.4 µM | > 100 µM | > 100 µM | – | > 100 µM | > 100 µM | > 100 µM
COc1ccc(S(=O)(=O)N2C(=O)CCC2C(=O)NN)cc1 (stereo not drawn) | > 100 µM | > 100 µM | > 100 µM | > 100 µM | > 100 µM | > 100 µM | – | > 100 µM | > 100 µM | > 100 µM | > 100 µM | > 100 µM | > 100 µM | > 100 µM | > 100 µM | > 100 µM
CCC1=NC(C(F)(F)F)(C(F)(F)F)N=C(N2CCOCC2)O1 | > 100 µM | > 100 µM | > 100 µM | > 100 µM | > 100 µM | > 100 µM | > 100 µM | > 100 µM | > 100 µM | > 100 µM | > 100 µM | – | > 100 µM | > 100 µM | > 100 µM | > 100 µM
N#CCc1nc(-c2ccccc2)n[nH]1 | > 100 µM | > 100 µM | > 100 µM | > 100 µM | > 100 µM | > 100 µM | > 100 µM | > 100 µM | > 100 µM | > 100 µM | > 100 µM | – | > 100 µM | > 100 µM | > 100 µM | > 100 µM
CC(=O)O/N=C/c1c2ccccc2cc2ccccc12 | > 100 µM | > 100 µM | – | > 100 µM | > 100 µM | – | > 100 µM | > 100 µM | > 100 µM | > 100 µM | > 100 µM | > 100 µM | > 100 µM | > 100 µM | > 100 µM | > 100 µM
CCOC(=O)C(Cl)(Cl)/S(=N\S(=O)(=O)c1ccccc1)NC(=O)c1ccccc1 (stereo not drawn) | > 100 µM | > 100 µM | > 100 µM | > 100 µM | > 100 µM | > 100 µM | > 100 µM | > 100 µM | > 100 µM | > 100 µM | > 100 µM | > 100 µM | – | > 100 µM | > 100 µM | > 100 µM
Nc1nc(Cl)cc(NCC2(CO)CCC(CCc3ccccc3)C2)n1 (stereo not drawn) | 21.9 µM | 27.8 µM | 31.2 µM | – | 28.3 µM | 37 µM | 35.6 µM | 34 µM | 51.2 µM | 41.6 µM | 27.3 µM | 36.1 µM | 30.2 µM | 21.8 µM | 33.6 µM | 33.1 µM
NCCCN1CCN(CCCNc2ccc3nnn4c5ccccc5c(=O)c2c34)CC1 | 37.7 µM | 38.4 µM | 33.1 µM | > 100 µM | 60.1 µM | 33.9 µM | 75 µM | > 100 µM | > 100 µM | > 100 µM | 58.1 µM | – | 59.2 µM | 45.2 µM | 29.1 µM | > 100 µM
O=C(Oc1cc(=O)c(OC(=O)c2ccccc2)co1)c1ccccc1 | > 100 µM | > 100 µM | > 100 µM | > 100 µM | > 100 µM | > 100 µM | > 100 µM | > 100 µM | > 100 µM | – | > 100 µM | > 100 µM | > 100 µM | > 100 µM | > 100 µM | > 100 µM
O=C(NCCCN(CCCCN(CCCNC(=O)C(F)(F)F)Cc1ccc2ccccc2c1)Cc1ccc2ccccc2c1)C(F)(F)F | > 100 µM | 4.54 µM | > 100 µM | 7.18 µM | 3.87 µM | > 100 µM | > 100 µM | > 100 µM | > 100 µM | 7.34 µM | 23.7 µM | > 100 µM | – | > 100 µM | > 100 µM | > 100 µM
CSc1c(C#N)c(N)n(-c2ccc(C)cc2)c(=O)c1C#N | > 100 µM | > 100 µM | > 100 µM | > 100 µM | > 100 µM | > 100 µM | > 100 µM | > 100 µM | > 100 µM | > 100 µM | > 100 µM | > 100 µM | > 100 µM | – | > 100 µM | > 100 µM
CCOC(CNCCC(=O)OC)OCC | > 10 µM | > 10 µM | > 10 µM | > 10 µM | > 10 µM | > 10 µM | > 10 µM | > 10 µM | > 10 µM | > 10 µM | > 10 µM | > 10 µM | > 10 µM | > 10 µM | > 10 µM | –
C[C@@H](Cl)[C@H]1CCCN(Cc2ccc(Br)cc2)C1 | – | > 12.5 µM | > 12.5 µM | > 12.5 µM | > 12.5 µM | > 12.5 µM | > 12.5 µM | > 12.5 µM | > 12.5 µM | > 12.5 µM | > 12.5 µM | > 12.5 µM | > 12.5 µM | > 12.5 µM | > 12.5 µM | > 12.5 µM
Cc1c(N2C(=O)C(Cl)C2c2ccc(Cl)cc2)c(=O)n(-c2ccccc2)n1C (stereo not drawn) | 36 µM | > 100 µM | > 100 µM | > 100 µM | 59.8 µM | > 100 µM | > 100 µM | – | > 100 µM | > 100 µM | > 100 µM | > 100 µM | > 100 µM | > 100 µM | > 100 µM | > 100 µM
